From patent US11028041B2, “Second generation GRP94-selective inhibitors” (University of Kansas, priority 2017, dated 2021)

Key:
[1] = target: Hsp90α (Homo sapiens (Human), UniProt P07900); assay: Fluorescence polarization assay against Hsp90α; type: binding; conditions: FITC-GDA tracer, 100 μM highest concentration tested, average of two independent experiments ± SEM, read-out: Apparent Kd Hsp90α
Method: Fluorescence Polarization. The assay was performed in 96-well black, flat-bottom plates with a final volume of 100 μL. 25 μL of assay buffer (20 mM HEPES, pH 7.3, 50 mM KCl, 5 mM MgCl2, 20 mM Na2MoO4, 2 mM DTT, 0.1 mg/mL BGG, and 0.01% NP-40) were added, followed by 25 μL of assay buffer containing 6 nM FITC-GDA (fluorescent tracer, stock in DMSO, diluted in assay buffer) and 50 μL of assay buffer containing 10 nM of either Grp94 or Hsp90α were added to each well. For each plate, wells containing buffer only (background), tracer in buffer only (low polarization control) and protein, tracer, and 1% DMSO (final concentration, high polarization control) were included. Compounds were then added with a final concentration of DMSO=1%. Plates were incubated at 4° C. with rocking for 24 h. […] Polarization values were correlated to % tracer bound and compound concentrations.

[2] = system: Akt; assay: Western blot analysis, cytosolic Hsp90-dependent client protein Akt; type: cell-based; conditions: MDA-MB-231, PC3-MM2, SK-MEL-28, A549; 24 h; geldanamycin at 0.5 μM
Method: (§4) Western Blot Analysis. […] Cells were harvested in cold PBS and lysed using MPER (Thermo Scientific) supplemented with protease inhibitors (Roche) according the manufacturer's instructions. Cell lysates were obtained by centrifugation at 15,000 rpm for 10 min at 4° C. Protein concentrations were determined using the Pierce BCA assay kit following the manufacturer's instructions. Equal amounts of protein were separated via gel electrophoresis under reducing conditions (10% acrylamide gels) then transferred to PVDF membranes and immunoblotted with the corresponding primary antibodies. Membranes were then incubated with the correct HRP-labeled secondary antibody, developed with a chemiluminescent substrate, and visualized.

[3] = system: Hsp70; assay: Western blot analysis, Hsp70 induction; type: cell-based; conditions: MDA-MB-231, PC3-MM2, SK-MEL-28, A549; 24 h; geldanamycin at 0.5 μM
Method: as §4

[4] = system: PC3-MM2 cells; assay: Anti-proliferation MTS/PMS assay, PC3-MM2; type: cell-based; conditions: Homo sapiens, PC3MM2, 72 h, average of two independent experiments ± SEM
Method: (§1) Compounds or vehicle were administered in DMSO (1% DMSO final concentration) and the plates were placed back in the incubator. After 72 h, the % viable cells were determined using the MTS/PMS cell proliferation kit (Promega) per the manufacturer's instructions. Cells treated with vehicle were normalized to 100% viable and compound treated wells were adjusted accordingly.

[5] = system: SK-MEL-28 cells; assay: Anti-proliferation MTS/PMS assay, SK-MEL-28; type: cell-based; conditions: Homo sapiens, 72 h, average of two independent experiments ± SEM
Method: as §1

[6] = system: A549 cells; assay: Wound healing scratch assay, A549; type: cell-based; conditions: 500 nM, 24 h
Method: (§2) Cell Culture. […] Wound Healing Scratch Assay. […] Images were processed and % migration determined via ImageJ. All experiments were performed in quadruplicate.

[7] = system: SK-MEL-28 cells; assay: Wound healing scratch assay, SK-MEL-28; type: cell-based; conditions: after 24 h
Method: as §2

[8] = system: A549 cells; assay: Anti-proliferation MTS/PMS assay, A549; type: cell-based; conditions: Homo sapiens, 72 h, average of two independent experiments ± SEM
Method: as §1

[9] = system: MDA-MB-231 cells; assay: Anti-proliferation MTS/PMS assay, MDA-MB-231; type: cell-based; conditions: Homo sapiens, 72 h, average of two independent experiments ± SEM
Method: as §1

[10] = system: PC3-MM2 cells; conditions: 500 nM, after 24 h
Method: (§3) Wound Healing Scratch Assay. Cells were counted via Trypan blue exclusion and seeded in 12-well plates at 200,000 cells/mL/well and returned to the incubator for 24 h. Scratches were made with a 0.1-10 μL pipette tip, then cells were washed with PBS and fresh media was added. […] Plates were returned to the incubator until 24 h pictures were taken. Images were processed and % migration determined via ImageJ. All experiments were performed in quadruplicate.

[11] = system: MDA-MB-231 cells; conditions: 500 nM, after 24 h
Method: as §3

Row | SMILES | Kd [1] | further results
1 | COC(=O)c1c(O)cc(O)c(Cl)c1CCc1ccccc1Cc1ccccc1OC [Compound 26, methyl 3-chloro-4,6-dihydroxy-2-(2-(2-methoxybenzyl)phenethyl)benzoate] | > 100 µM | –
2 | COC(=O)c1c(O)cc(O)c(Cl)c1CCc1cccc(OC)c1Cc1ccccc1 [Compound 18, methyl 2-(2-benzyl-3-methoxyphenethyl)-3-chloro-4,6-dihydroxybenzoate] | 13.7 ± 1.4 µM | –
3 | COC1=C2C[C@@H](C)C[C@H](OC)[C@H](O)[C@@H](C)/C=C(\C)[C@H](OC(N)=O)[C@@H](OC)/C=C\C=C(/C)C(=O)NC(=CC1=O)C2=O [geldanamycin, reference compound] | – | degradation of Akt [2]: induced the degradation of Akt; induction of Hsp70 [3]: increased the levels of Hsp70
4 | COC(=O)c1c(O)cc(O)c(Cl)c1CCc1cccc(O)c1Cc1ccccc1 [Compound 24, methyl 2-(2-benzyl-3-hydroxyphenethyl)-3-chloro-4,6-dihydroxybenzoate] | 2 ± 0.2 µM | –
5 | COC(=O)c1c(O)cc(O)c(Cl)c1CCc1cccc(Cc2ccccc2)c1 [Compound 7, methyl 2-(3-benzylphenethyl)-3-chloro-4,6-dihydroxybenzoate] | > 100 µM | –
6 | CCOc1ccccc1Cc1ccccc1CCc1c(Cl)c(O)cc(O)c1C(=O)OC [Compound 25, methyl 3-chloro-2-(2-(2-ethoxybenzyl)phenethyl)-4,6-dihydroxybenzoate] | > 100 µM | –
7 | COC(=O)c1c(O)cc(O)c(Cl)c1CCc1ccccc1Cc1ccc(F)cc1 [Compound 30, methyl 3-chloro-2-(2-(4-fluorobenzyl)phenethyl)-4,6-dihydroxybenzoate] | – | GI50 [4]: 18.3 ± 2.3 µM; GI50 [5]: 16.6 ± 1.2 µM; anti-migratory effect [6]: demonstrated an anti-migratory effect; effect on migration [7]: demonstrated a susceptibility to Grp94 inhibition; degradation of Akt [2]: did not induce the degradation of Akt; induction of Hsp70 [3]: nor did it result in the induction of Hsp70; GI50 [8]: 16.7 ± 1.2 µM; GI50 [9]: 22.4 ± 1.9 µM; % migration [10]: 38-40%; % migration [11]: 38-40%
8 | COC(=O)c1c(O)cc(O)c(Cl)c1CCc1ccccc1Cc1ccccc1Cl [Compound 27, methyl 3-chloro-2-(2-(2-chlorobenzyl)phenethyl)-4,6-dihydroxybenzoate] | > 100 µM | –
9 | COC(=O)c1c(O)cc(O)c(Cl)c1CCc1ccccc1Cc1ccc(Cl)cc1 [Compound 29, methyl 3-chloro-2-(2-(4-chlorobenzyl)phenethyl)-4,6-dihydroxybenzoate] | > 100 µM | –

More lines, main results first:

Row | Kd [1] | SMILES | further results
10 | 20.7 ± 0.5 µM | COC(=O)c1c(O)cc(O)c(Cl)c1CCc1ccccc1Cc1ccccc1 [Compound 6, methyl 2-(2-benzylphenethyl)-3-chloro-4,6-dihydroxybenzoate] | –
11 | 2.6 ± 0.6 µM | COC(=O)c1c(O)cc(O)c(Cl)c1CCc1ccc(OC)cc1Cc1ccccc1 [Compound 17, methyl 2-(2-benzyl-4-methoxyphenethyl)-3-chloro-4,6-dihydroxybenzoate] | –
12 | 1 ± 0.1 µM | COC(=O)c1c(O)cc(O)c(Cl)c1CCc1cc(N)ccc1Cc1ccccc1 [Compound 19, methyl 2-(5-amino-2-benzylphenethyl)-3-chloro-4,6-dihydroxybenzoate] | –
13 | 2.2 ± 0.2 µM | COC(=O)c1c(O)cc(O)c(Cl)c1CCc1cc(OC)ccc1Cc1ccccc1 [Compound 16, methyl 2-(2-benzyl-5-methoxyphenethyl)-3-chloro-4,6-dihydroxybenzoate] | –
14 | 0.92 ± 0.03 µM | COC(=O)c1c(O)cc(O)c(Cl)c1CCc1ccc(O)cc1Cc1ccccc1 [Compound 23, methyl 2-(2-benzyl-4-hydroxyphenethyl)-3-chloro-4,6-dihydroxybenzoate] | –
15 | 0.34 ± 0.07 µM | COC(=O)c1c(O)cc(O)c(Cl)c1CCc1ccc(N)cc1Cc1ccccc1 [Compound 20, methyl 2-(4-amino-2-benzylphenethyl)-3-chloro-4,6-dihydroxybenzoate] | –
16 | 44.6 ± 2 µM | COC(=O)c1c(O)cc(O)c(Cl)c1CCc1ccccc1Cc1cccc(Cl)c1 [Compound 28, methyl 3-chloro-2-(2-(3-chlorobenzyl)phenethyl)-4,6-dihydroxybenzoate] | –
17 | 2.1 ± 0.1 µM | COC(=O)c1c(O)cc(O)c(Cl)c1CCc1cc(O)ccc1Cc1ccccc1 [Compound 22, methyl 2-(2-benzyl-5-hydroxyphenethyl)-3-chloro-4,6-dihydroxybenzoate] | –
